In patent US5968912A, “Methods for immunosuppressing” (Immune Modulation, Inc., priority 1997, dated 1999):
pIC50: −log10 of the molar value.

How the values were obtained:
[1] = tested on: mononuclear leukocytes (Two-way MLR); assay: Two-way mixed leukocyte reaction (MLR), 3H-thymidine incorporation; type: cell-based, human
[2] = tested on: IL-4; assay: IL-4 production in PHA-stimulated PBMC cultures; type: cell-based, human; parameters: % Inhibition of IL-4 production: concentration or dose not given beside the values
Experimental: (§1) Production of autocrine growth factors (IL-2, IL-4, IL-10 and Interferon-gamma) in PHA-stimulated human PBMC cultures
(§2) Culture supernatants were collected at the times indicated and frozen at -20° C. At the end of 96 hr., all supernatants were assayed by enzyme immunoassay for the presence of the cytokines: interleukin-2, -4, -10 and interferon (IFN)-gamma. Results were expressed in pg/mL concentration of cytokine and % inhibition of cytokine production.

[3] = tested on: IL-10; assay: IL-10 production in PHA-stimulated PBMC cultures; type: cell-based, human; parameters: % Inhibition of IL-10 production: concentration or dose not given beside the values
Experimental: as §1, §2

[4] = tested on: H-2K anti-H-2d cytotoxic T-cells; assay: Generation of H-2K anti-H-2d cytotoxic T-cell activity in mice, ex vivo 51Cr-release assay; parameters: species or system mouse (C3H/J; DBA/2 targets)
Experimental: Generation of H-2 Restricted Cytolytic T-lymphocytes in Mice
A mouse correlate of the human "one-way MLR" was developed in inbred strains of mice. The cells of one mouse strain (H-2^d) were injected i.v. into a different mouse strain (H-2^k). Mice were obtained from Charles River Laboratories, Hollister, Calif.). Because of the histoincompatibility between the two strains, the H-2^k mice develop cytotoxic T-cells capable of killing the cells of the H-2^d strain of mice (Abbas, A. K., id), which is the type of reaction observed in humans or animals receiving tissue grafts from histoincompatible donors. The H-2^k mice sensitized against H-2^d cells/allo-antigens were treated with either HE-33 (100 mg/kg i.v. or 400 mg/kg orally) every three days for 9 days or were not treated with drug.
Ex Vivo Assay. On the tenth day, all mice were sacrificed, and spleens were removed to test for splenic T-cell-mediated cytotoxicity against CON-A stimulated DBA/2 spleen cells expressing the H-2^d antigens. CON-A was obtained from Sigma Chem. Co., St. Louis, Mo. Spleen cell suspensions were prepared in complete culture medium and adjusted to desired concentrations. The CON-A blast cells were radiolabeled with ^51 Cr and mixed with the respective splenic effector cells at varying effector:target cell ratios in 96-well microtiter plates. The mixtures were cultured for 4 hr. at 37° C. in a 5% CO2 incubator. Lysis of target cells were assessed essentially as described previously for a ^51 Cr-release assay (Ojo-Amaize, E. A., et al., id) and results expressed as % specific lysis (FIG. 1).
*C3 H/J mouse was injected with 2 × 10^7 DBA/2 spleen cell
for 9 days. HE33 was administered either orally (400 mg/kg) or
intravenously (100 mg/kg) on day 0 and every three days. ConA stimulated
DBA/2 spleen cells were used as target cells.

[5] = tested on: tetanus toxoid-specific T-cell proliferation (PBMC); assay: cells; type: cell-based, human
[6] = tested on: IL-2; assay: IL-2 production in PHA-stimulated PBMC cultures; type: cell-based, human; parameters: % Inhibition of IL-2 production: concentration or dose not given beside the values
Experimental: as §1, §2

CCCN(CCC)c1ncnc2c1ncn2[C@@H]1O[C@@H]2COP(=O)(O)O[C@H]2[C@H]1O [HE-33, N^6,N^6 -di-n-Propyl-c-AMP] was tested, and the pIC50 ([1]; Homo sapiens, Leukocyte, read-out: IC50, drug concentration capable of inducing a 50% inhibition) was 6.00 to 7.00, the inhibition at 0.01 µM ([1]; Homo sapiens, Leukocyte, 0.01 μM) was 28% and the inhibition at 0.1 µM ([1]; Homo sapiens, Leukocyte, 0.1 μM) was 40%. The inhibition at 1 µM ([1]; Homo sapiens, Leukocyte, 1 μM) was 81%, the inhibition at 10 µM ([1]; Homo sapiens, Leukocyte, 10 μM) was 96% and the inhibition at 100 µM ([1]; Homo sapiens, Leukocyte, 100 μM) was 99.2%. For the same compound, the “Inhibitory capacity on two-way MLR, in words” value ([1]; two-way MLR) was “comparable to that of cyclosporin (CsA)”, the “% Inhibition of IL-4 production” value ([2]; 24 hours) was 0% and the IL-4 production ([2]; 24 hours) was 1041 pg/mL. The “% Inhibition of IL-4 production” value ([2]; 48 hours) was 87%, the IL-4 production ([2]; 48 hours) was 193 pg/mL and the “% Inhibition of IL-4 production” value ([2]; 72 hours) was 26%. For the same compound, the IL-4 production ([2]; 72 hours) was 860 pg/mL, the “% Inhibition of IL-4 production” value ([2]; 96 hours) was 25% and the IL-4 production ([2]; 96 hours) was 101 pg/mL. For the same compound, the “% Inhibition of IL-10 production” value ([3]; 24 hours) was 21%, the IL-10 production ([3]; 24 hours) was 441 pg/mL and the “% Inhibition of IL-10 production” value ([3]; 48 hours) was 0%. For the same compound, the IL-10 production ([3]; 48 hours) was 1304 pg/mL, the “% Inhibition of IL-10 production” value ([3]; 72 hours) was 0% and the IL-10 production ([3]; 72 hours) was 790 pg/mL. For the same compound, the “% Inhibition of IL-10 production” value ([3]; 96 hours) was 0%, the IL-10 production ([3]; 96 hours) was 991 pg/mL and the L.U. ([4]; I.V. injected 100 mg/kg) was 1 L.U. The “% Inhibition of cytotoxic T-cell activity” value ([4]; I.V. injected 100 mg/kg every three days) was 92%, the “% Lysis” value ([4]; I.V. injected 100 mg/kg, ratio 3.12:1) was 0% and the “% Lysis” value ([4]; I.V. injected 100 mg/kg, ratio 6.25:1) was 0%. For the same compound, the “% Lysis” value ([4]; I.V. injected 100 mg/kg, ratio 12.5:1) was 0%, the “% Lysis” value ([4]; I.V. injected 100 mg/kg, ratio 25:1) was 1% and the “% Inhibition of cytotoxic T-cell activity” value ([4]; oral fed 400 mg/kg) was 32%. The L.U. ([4]; oral fed 400 mg/kg) was 9 L.U, the “% Lysis” value ([4]; oral fed 400 mg/kg, ratio 3.12:1) was 1% and the “% Lysis” value ([4]; oral fed 400 mg/kg, ratio 6.25:1) was 2%. The “% Lysis” value ([4]; oral fed 400 mg/kg, ratio 12.5:1) was 2%, the “% Lysis” value ([4]; oral fed 400 mg/kg, ratio 25:1) was 5% and the Proliferation ([5]; 1 μg/mL) was 358 CPM. For the same compound, the Proliferation ([5]; 10 μg/mL) was 94 CPM, the inhibition at 1 µg/mL ([5]; Homo sapiens, T-cell, 1 μg/mL) was 65% and the “% Inhibition of IL-2 production” value ([6]; 24 hours) was 0%. The IL-2 production ([6]; 24 hours) was 418 pg/mL, the “% Inhibition of IL-2 production” value ([6]; 48 hours) was 76% and the IL-2 production ([6]; 48 hours) was 148 pg/mL. The “% Inhibition of IL-2 production” value ([6]; 72 hours) was 70%, the IL-2 production ([6]; 72 hours) was 51 pg/mL and the “% Inhibition of IL-2 production” value ([6]; 96 hours) was 0%. It also gave an IL-2 production ([6]; 96 hours) of 48 pg/mL.
